Data published in ChEMBL document CHEMBL4387730, “Discovery of a new autophagy inducer for A549 lung cancer cells” (Bioorg Med Chem, 2019).
Activity calls are given as the source filed them. No cut-off for these calls is given here.

Assays:
[1] = test system: A549; experiment: Cytotoxicity against human A549 cells assessed as reduction in viability at 0.1 to 20 uM after 48 hrs by SRB assay; type: functional, cell-based
[2] = test system: A549; experiment: Cytotoxicity against human A549 cells assessed as reduction in viability at 0.1 to 20 uM after 24 hrs by SRB assay; type: functional, cell-based
[3] = test system: A549; experiment: Induction of morphological changes in human A549 cells assessed as apoptotic body formation at 0.1 to 20 uM after 3 to 24 hrs by acridine orange staining based inverted phase contrast microscopic method; type: functional, cell-based
[4] = biological target: mTORC1 (Homo sapiens) (UniProt P42345+Q8N122+Q9BVC4); experiment: Inhibition of mTORC1 in human A549 cells assessed as reduction in p70S6K phosphorylation at 10 uM after 3 to 24 hrs by Western blot analysis; type: cell-based
[5] = test system: A549; experiment: Induction of necrosis in human A549 cells assessed as increase in LDH activity at 0.1 to 5 uM after 24 hrs by absorption spectrophotometric method; type: cell-based; details: a549, 24 h
[6] = test system: A549; experiment: Induction of autophagy in human A549 cells assessed decrease in p62 expression at 1 to 10 uM after 24 hrs by Western blot analysis; type: functional, cell-based
[7] = test system: A549; experiment: Induction of necrosis in human A549 cells assessed as increase in LDH activity at 10 uM after 24 hrs by absorption spectrophotometric method; type: cell-based; details: a549, 24 h
[8] = test system: U-87 MG; experiment: Induction of autophagy in human U87 cells transfected with GFP-fused LC3-II assessed as punctiform pattern of LC3-II at 1 to 10 uM after 24 hrs by laser scanning confocal microscopic method; type: functional, cell-based; details: U-87MG ATCC
[9] = test system: A549; experiment: Induction of apoptosis in human A549 cells assessed as increase in Cleaved-PARP expression at 1 to 10 uM after 24 hrs by Western blot analysis; type: functional, cell-based
[10] = test system: A549; experiment: Induction of autophagy in human A549 cells assessed as accumulation of acidic vesicles at 0.05 to 20 uM after 24 hrs by acridine orange staining based fluorescence microscopic method; type: functional, cell-based
[11] = test system: A549; experiment: Cytotoxicity against human A549 cells assessed as reduction in viability after 48 hrs by SRB assay; type: functional, cell-based; details: A549, 48 h
[12] = test system: A549; experiment: Induction of autophagic flux in human A549 cells assessed as increase in LC3-II protein level at 10 uM after 24 hrs in presence of V-ATPase inhibitor bafilomycin-A1 by Western blot analysis; type: functional, cell-based
[13] = test system: A549; experiment: Induction of autophagy in human A549 cells assessed as increase in […] expression at 1 to 10 uM after 24 hrs by Western blot analysis; type: functional, cell-based
[14] = test system: A549; experiment: Inhibition of autophagy flux in human A549 assessed as increase in p62 expression at 1 to 10 uM after 24 hrs by Western blot analysis; type: functional, cell-based

Sequence of mTORC1 (Homo sapiens) (Q8N122 whole entry, looked up, other chains not shown): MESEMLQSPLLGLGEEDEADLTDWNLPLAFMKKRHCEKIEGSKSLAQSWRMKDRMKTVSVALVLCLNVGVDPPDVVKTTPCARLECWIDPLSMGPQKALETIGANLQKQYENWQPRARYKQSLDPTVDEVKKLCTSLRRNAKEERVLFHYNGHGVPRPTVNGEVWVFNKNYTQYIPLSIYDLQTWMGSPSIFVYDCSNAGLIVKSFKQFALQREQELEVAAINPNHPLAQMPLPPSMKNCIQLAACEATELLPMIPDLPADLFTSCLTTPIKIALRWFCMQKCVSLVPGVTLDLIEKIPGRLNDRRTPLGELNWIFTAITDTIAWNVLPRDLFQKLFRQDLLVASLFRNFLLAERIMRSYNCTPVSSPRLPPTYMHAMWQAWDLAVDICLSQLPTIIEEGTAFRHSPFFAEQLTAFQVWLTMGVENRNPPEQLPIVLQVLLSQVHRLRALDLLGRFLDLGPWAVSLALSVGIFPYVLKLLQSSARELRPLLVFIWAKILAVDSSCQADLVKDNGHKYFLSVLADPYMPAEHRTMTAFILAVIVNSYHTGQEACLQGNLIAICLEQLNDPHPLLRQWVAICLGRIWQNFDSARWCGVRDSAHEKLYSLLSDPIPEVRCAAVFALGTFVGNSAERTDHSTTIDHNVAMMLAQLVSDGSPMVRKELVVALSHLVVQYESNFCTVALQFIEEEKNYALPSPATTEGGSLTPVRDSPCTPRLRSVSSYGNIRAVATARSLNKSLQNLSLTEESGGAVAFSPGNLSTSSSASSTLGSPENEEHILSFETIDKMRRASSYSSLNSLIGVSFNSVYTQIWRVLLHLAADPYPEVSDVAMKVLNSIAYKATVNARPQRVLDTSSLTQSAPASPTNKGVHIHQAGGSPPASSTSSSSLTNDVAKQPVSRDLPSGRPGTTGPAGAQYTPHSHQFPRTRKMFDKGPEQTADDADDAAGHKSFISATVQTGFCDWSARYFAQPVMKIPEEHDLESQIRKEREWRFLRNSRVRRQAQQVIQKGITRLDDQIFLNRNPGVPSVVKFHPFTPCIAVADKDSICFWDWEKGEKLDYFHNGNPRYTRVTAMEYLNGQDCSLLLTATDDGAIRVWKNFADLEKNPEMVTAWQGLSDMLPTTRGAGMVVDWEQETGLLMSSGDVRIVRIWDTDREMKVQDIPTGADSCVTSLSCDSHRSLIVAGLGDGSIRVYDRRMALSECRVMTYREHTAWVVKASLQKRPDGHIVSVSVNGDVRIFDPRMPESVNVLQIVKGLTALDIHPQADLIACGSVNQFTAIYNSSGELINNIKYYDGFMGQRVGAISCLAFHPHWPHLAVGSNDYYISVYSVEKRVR
Sequence of mTORC1 (Homo sapiens) (Q9BVC4 whole entry, looked up, other chains not shown): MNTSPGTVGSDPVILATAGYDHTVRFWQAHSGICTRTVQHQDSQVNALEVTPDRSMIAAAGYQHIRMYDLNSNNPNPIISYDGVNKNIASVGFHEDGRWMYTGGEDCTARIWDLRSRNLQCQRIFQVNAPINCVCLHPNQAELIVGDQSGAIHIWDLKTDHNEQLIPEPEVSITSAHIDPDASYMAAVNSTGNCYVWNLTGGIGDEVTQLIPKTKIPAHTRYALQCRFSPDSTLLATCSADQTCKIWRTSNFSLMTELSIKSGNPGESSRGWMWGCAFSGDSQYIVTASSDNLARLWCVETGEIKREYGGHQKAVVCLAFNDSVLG

SMILES	Activity [1]	Activity [2]	also measured
O=C1OC(=O)c2ccc(N3CCCC3)c3cccc1c23	inactive	inactive	–
CCN(CC)c1ccc2cc(-c3ccc(N)cc3)c(=O)oc2c1	inactive	inactive	–
CC1=[N+](C)c2ccccc2C1(C)C	inactive	inactive	–
O=C(O)c1ccc(N2C(=O)c3cccc4cccc(c34)C2=O)cc1	inactive	inactive	–
C[N+]1=C(/C=C/c2ccc(N3CCCCC3)cc2)C(C)(C)c2ccccc21.[I-]	Active	Active	Activity [3]: Active; inhibition [4]: Active; Activity [5]: Non-Toxic; Activity [6]: Active; Activity [7]: Non-Toxic; Activity [8]: Dose-dependent effect; Activity [9]: Active; Activity [10]: Active; IC50 [11]: 1.1 µM; Activity [12]: Active; Activity [13]: Active
O=C(O)c1ccc(-c2oc3ccccc3c(=O)c2O)cc1	inactive	inactive	–
CCN(CC)c1ccc2cc(-c3ccc(C)cc3)c(=O)oc2c1	inactive	inactive	–
O=Cc1ccc2c(c1)c1ccccc1n2CCCN1CCNCC1	inactive	inactive	–
CCN(CC)c1ccc2ccc(=O)oc2c1	inactive	inactive	–
O=C(O)c1ccc2c(c1)S(=O)(=O)c1ccccc1N2CCCCl	inactive	inactive	–
C[N+]1=C(/C=C/c2ccc(N)cc2)C(C)(C)c2ccccc21	Active	Active	IC50 [11]: 3.9 µM
CCN(CC)C(=O)c1ccc(-c2oc3ccccc3c(=O)c2O)cc1	inactive	inactive	–
CC1(C)CC(/C=C/c2ccc(N3CCNCC3)cc2)=CC(=C(C#N)C#N)C1	Active	Active	Activity [3]: Active; inhibition [14]: Active; Activity [5]: Non-Toxic; Activity [7]: Toxic; Activity [9]: Active; Activity [10]: Active; IC50 [11]: 7.1 µM; Activity [13]: Active
O=Cc1ccc2c(c1)c1ccccc1n2CCCCl	inactive	inactive	–
Cc1cc[n+](CCCN2c3ccccc3S(=O)(=O)c3cc(C(=O)O)ccc32)cc1	inactive	inactive	–
O=c1[nH]cc(F)c(=O)[nH]1 [FLUOROURACIL]	Active	Active	IC50 [11]: 7.1 µM
C[N+]1=C(/C=C/c2ccc(N3CCNCC3)cc2)C(C)(C)c2ccccc21	Active	Active	IC50 [11]: 13.6 µM
